Experimental data taken from ChEMBL document CHEMBL5625268, “Identification of novel benzothiazole derivatives as inhibitors of NEDDylation pathway to inhibit the progression of gastric cancer” (Bioorg Med Chem Lett, 2024).
Activity calls are given as the source filed them. The rule behind the calls is not given here.

Legend:
[1] = target: T1, NEDD8 activating enzyme (Homo sapiens) (UniProt Q8TBC4+Q13564); experiment: Inhibition of NAE in human MGC-803 cells assessed as reduction in UBC12-NEDD8 complex incubated for 24 hrs by Western blot analysis; type: cell-based; conditions: dose 1-5 µM
[2] = target: T1, NEDD8 activating enzyme (Homo sapiens); experiment: Inhibition of NAE in human MGC-803 cells assessed as reduction in NAE1-NEDD8 complex incubated for 24 hrs by Western blot analysis; type: cell-based; conditions: dose 1-5 µM
[3] = target: T1, NEDD8 activating enzyme (Homo sapiens); experiment: Inhibition of NAE in human MGC-803 cells assessed as reduction in cullin1 neddylation incubated for 24 hrs by Western blot analysis; type: cell-based; conditions: dose 1-5 µM
[4] = target: T1, NEDD8 activating enzyme (Homo sapiens); experiment: Inhibition of NAE in human MGC-803 cells assessed as reduction in cullin3 neddylation incubated for 24 hrs by Western blot analysis; type: cell-based; conditions: dose 1-5 µM
[5] = target: T1, NEDD8 activating enzyme (Homo sapiens); experiment: Inhibition of NAE in human MGC-803 cells assessed as reduction in cullin5 neddylation incubated for 24 hrs by Western blot analysis; type: cell-based; conditions: dose 1-5 µM
MGC-803 [6] = experiment: Induction of cell cycle arrest in human MGC-803 cells assessed as accumulation of cells at G1 phase at 1 uM incubated for 24 hrs by flow cytometry analysis (reference value: 64.82%); type: functional
MGC-803 [7] = experiment: Induction of cell cycle arrest in human MGC-803 cells assessed as accumulation of cells at G1 phase at 2 uM incubated for 24 hrs by flow cytometry analysis (reference value: 64.82%); type: functional
MGC-803 [8] = experiment: Induction of cell cycle arrest in human MGC-803 cells assessed as accumulation of cells at G1 phase at 4 uM incubated for 24 hrs by flow cytometry analysis (reference value: 64.82%); type: functional
MGC-803 [9] = experiment: Induction of cell cycle arrest in human MGC-803 cells assessed as accumulation of cells in S phase at 1 uM incubated for 24 hrs by flow cytometry analysis (reference value: 21.93%); type: functional
MGC-803 [10] = experiment: Induction of cell cycle arrest in human MGC-803 cells assessed as accumulation of cells in S phase at 2 uM incubated for 24 hrs by flow cytometry analysis (reference value: 21.93%); type: functional
MGC-803 [11] = experiment: Induction of cell cycle arrest in human MGC-803 cells assessed as accumulation of cells in S phase at 4 uM incubated for 24 hrs by flow cytometry analysis (reference value: 21.93%); type: functional
MGC-803 [12] = experiment: Induction of cell cycle arrest in human MGC-803 cells assessed as accumulation of cells in G2/M phase at 1 uM incubated for 24 hrs by flow cytometry analysis (reference value: 13.25%); type: functional
MGC-803 [13] = experiment: Induction of cell cycle arrest in human MGC-803 cells assessed as accumulation of cells in G2/M phase at 2 uM incubated for 24 hrs by flow cytometry analysis (reference value: 13.25%); type: functional
MGC-803 [14] = experiment: Induction of cell cycle arrest in human MGC-803 cells assessed as accumulation of cells in G2/M phase at 4 uM incubated for 24 hrs by flow cytometry analysis (reference value: 13.25%); type: functional
MGC-803 [15] = experiment: Induction of apoptosis in human MGC-803 cells assessed as viable cells at 1 uM incubated for 48 hrs by Annexin V-FITC/PI double staining based flow cytometry analysis (reference value: 97.3 %); type: functional; conditions: read-out: Activity
MGC-803 [16] = experiment: Induction of apoptosis in human MGC-803 cells assessed as viable cells at 2 uM incubated for 48 hrs by Annexin V-FITC/PI double staining based flow cytometry analysis (reference value: 97.3 %); type: functional; conditions: read-out: Activity
MGC-803 [17] = experiment: Induction of apoptosis in human MGC-803 cells assessed as viable cells at 4 uM incubated for 48 hrs by Annexin V-FITC/PI double staining based flow cytometry analysis (reference value: 97.3 %); type: functional; conditions: read-out: Activity
MGC-803 [18] = experiment: Induction of apoptosis in human MGC-803 cells assessed as early apoptosis cells at 1 uM incubated for 48 hrs by Annexin V-FITC/PI double staining based flow cytometry analysis (reference value: 0.39 %); type: functional
MGC-803 [19] = experiment: Induction of apoptosis in human MGC-803 cells assessed as early apoptosis cells at 2 uM incubated for 48 hrs by Annexin V-FITC/PI double staining based flow cytometry analysis (reference value: 0.39 %); type: functional
MGC-803 [20] = experiment: Induction of apoptosis in human MGC-803 cells assessed as early apoptosis cells at 4 uM incubated for 48 hrs by Annexin V-FITC/PI double staining based flow cytometry analysis (reference value: 0.39 %); type: functional
MGC-803 [21] = experiment: Induction of apoptosis in human MGC-803 cells assessed as late apoptosis cells at 1 uM incubated for 48 hrs by Annexin V-FITC/PI double staining based flow cytometry analysis (reference value: 1.95 %); type: functional
MGC-803 [22] = experiment: Induction of apoptosis in human MGC-803 cells assessed as late apoptosis cells at 2 uM incubated for 48 hrs by Annexin V-FITC/PI double staining based flow cytometry analysis (reference value: 1.95 %); type: functional
MGC-803 [23] = experiment: Induction of apoptosis in human MGC-803 cells assessed as late apoptosis cells at 4 uM incubated for 48 hrs by Annexin V-FITC/PI double staining based flow cytometry analysis (reference value: 1.95 %); type: functional
MGC-803 [24] = experiment: Induction of apoptosis in human MGC-803 cells assessed as necrotic cells at 1 uM incubated for 48 hrs by Annexin V-FITC/PI double staining based flow cytometry analysis (reference value: 0.37 %); type: functional
MGC-803 [25] = experiment: Induction of apoptosis in human MGC-803 cells assessed as necrotic cells at 2 uM incubated for 48 hrs by Annexin V-FITC/PI double staining based flow cytometry analysis (reference value: 0.37 %); type: functional
MGC-803 [26] = experiment: Induction of apoptosis in human MGC-803 cells assessed as necrotic cells at 4 uM incubated for 48 hrs by Annexin V-FITC/PI double staining based flow cytometry analysis (reference value: 0.37 %); type: functional
MGC-803 [27] = experiment: Induction of ROS generation in human MGC-803 cells at 1 uM incubated for 24 hrs by DCFH-DA staining based flow cytometry analysis (reference value: 3.1%); type: functional
MGC-803 [28] = experiment: Induction of ROS generation in human MGC-803 cells at 2 uM incubated for 24 hrs by DCFH-DA staining based flow cytometry analysis (reference value: 3.1%); type: functional
MGC-803 [29] = experiment: Induction of ROS generation in human MGC-803 cells at 4 uM incubated for 24 hrs by DCFH-DA staining based flow cytometry analysis (reference value: 3.1%); type: functional
MGC-803 [30] = experiment: Inhibition of cell migration in human MGC-803 cells incubated for 48 hrs by wound healing assay; type: functional, cell-based; conditions: dose 1-4 µM
MGC-803 [31] = experiment: Inhibition of cell migration in human MGC-803 cells assessed as reduction in wound closure rate at 4 uM incubated for 48 hrs by wound healing assay (reference value: 49%); type: functional
MGC-803 [32] = experiment: Inhibition of colony formation in human MGC-803 cells incubated for 48 hrs by phase-contrast microscopy; type: functional, cell-based; conditions: dose 1-4 µM
A549 = experiment: Antiproliferative activity against human A549 cells by CCK8 assay; type: functional, cell-based
MGC-803 [33] = experiment: Antiproliferative activity against human MGC-803 cells by CCK8 assay; type: functional, cell-based
MCF7 = experiment: Antiproliferative activity against human MCF7 cells by CCK8 assay; type: functional, cell-based
KYSE-30 = experiment: Antiproliferative activity against human KYSE-30 cells by CCK8 assay; type: functional, cell-based
[34] = Cytotoxicity against HUVECs incubated for 72 hrs by CCK8 assay; type: toxicity, cell-based; conditions: human, HUVEC cells
[35] = Selectivity index, ratio of IC50 for human A549 cells to IC50 for HUVECs
[36] = Selectivity index, ratio of IC50 for human MGC-803 cells to IC50 for HUVECs
[37] = Selectivity index, ratio of IC50 for human MCF7 cells to IC50 for HUVECs
[38] = Selectivity index, ratio of IC50 for human KYSE-30 cells to IC50 for HUVECs
[39] = target: T1, NEDD8 activating enzyme (Homo sapiens); experiment: Inhibition of NAE in human MGC-803 cells assessed as reduction in NAE1-NEDD8 complex formation at 5 uM incubated for 24 hrs by Western blot analysis relative to control; type: cell-based

For `CCc1ccc(C(=O)Nc2nc3ccc(NC(=O)C4CCN(Cc5ccccc5)CC4)cc3s2)cc1`, the inhibition [1] was “Dose-Dependent Effect”, the inhibition [2] was “Dose-Dependent Effect” and the inhibition [3] was “Dose-Dependent Effect”. For the same compound, the inhibition [4] was “Dose-Dependent Effect”, the inhibition [5] was “inactive” and the Activity (MGC-803 [6]) was 68.08%. For the same compound, the Activity (MGC-803 [7]) was 61.71%, the Activity (MGC-803 [8]) was 45.22% and the Activity (MGC-803 [9]) was 13.29%. The Activity (MGC-803 [10]) was 12.39%, the Activity (MGC-803 [11]) was 17.12% and the Activity (MGC-803 [12]) was 18.63%. For the same compound, the Activity (MGC-803 [13]) was 25.9%, the Activity (MGC-803 [14]) was 37.66% and the viability at 1 µM (MGC-803 [15]) was 86.5%. For the same compound, the viability at 2 µM (MGC-803 [16]) was 73.3%, the viability at 4 µM (MGC-803 [17]) was 57.6% and the Activity (MGC-803 [18]) was 3.15%. It also gave an Activity (MGC-803 [19]) of 7.92%, an Activity (MGC-803 [20]) of 8.54% and an Activity (MGC-803 [21]) of 10.1%. For the same compound, the Activity (MGC-803 [22]) was 18.5%, the Activity (MGC-803 [23]) was 33.8% and the Activity (MGC-803 [24]) was 0.18%. For the same compound, the Activity (MGC-803 [25]) was 0.23%, the Activity (MGC-803 [26]) was 0.11% and the Activity (MGC-803 [27]) was 6.8%. The Activity (MGC-803 [28]) was 13.1%, the Activity (MGC-803 [29]) was 26.4% and the inhibition (MGC-803 [30]) was “Dose-Dependent Effect”. The inhibition at 4 µM (MGC-803 [31]) was under 20%, the inhibition (MGC-803 [32]) was “Dose-Dependent Effect” and the IC50 (A549) was 870 nM. For the same compound, the IC50 (MGC-803 [33]) was 1630 nM, the IC50 (MCF7) was 960 nM and the IC50 (KYSE-30) was 650 nM. For the same compound, the IC50 at 72 h [34] was 6210 nM, the “Ratio IC50” value [35] was 3.8 and the “Ratio IC50” value [36] was 3.8. The “Ratio IC50” value [37] was 3.8, the “Ratio IC50” value [38] was 3.8 and the inhibition [39] was 100%.
